The results in this text go back to ChEMBL document CHEMBL5131425, “Microbial transformation and inhibitory effect assessment of uvaol derivates against LPS and HMGB1 induced NO production in RAW264.7 macrophages” (Bioorg Med Chem Lett, 2022).

As usually defined, the IC50 is the point on the concentration scale where inhibition reaches its midpoint.

The subject of data set [1] is RAW264.7. Briefly: Anti-inflammatory activity in mouse RAW264.7 cells assessed as inhibition of LPS-induced NO production. It counts as functional, cell-based.
A short description of data set [2]: Cytotoxicity against mouse RAW264.7 cells assessed as cell viability at 50 uM. It counts as toxicity, cell-based. Particulars: read-out: Activity.
In data set [3] the test system is RAW264.7. Briefly: Anti-inflammatory activity in mouse RAW264.7 cells assessed as inhibition of HMGB1-induced NO production. It counts as functional, cell-based.

For `C[C@H]1[C@H](C)[C@@H](O)C[C@@]23CC[C@@]4(C)[C@@]5(C)[C@H](C=C[C@]4(OC2)[C@H]13)[C@@]1(C)CC[C@H](O)C(C)(C)[C@@H]1C[C@@H]5O`, the IC50 with RAW264.7 [1] amounted to 4.8 µM; in the data set on RAW264.7 [3], 47.2 µM. In data set [2], the viability at 50 µM came out at 94.2%.
With `C[C@H]1[C@H](C)[C@@H](O)C[C@]2(CO)CC[C@]3(C)C(=CC[C@@H]4[C@@]5(C)CC[C@H](O)C(C)(C)[C@@H]5C[C@H](O)[C@]43C)[C@H]12`, the concentration for half-maximal inhibition (IC50) with RAW264.7 [1] is 2.22 µM; in the data set on RAW264.7 [3], greater than 100 µM. In addition, the viability at 50 µM in data set [2] was 94.2%.
With `C[C@@H]1[C@H]2C3=CC[C@@H]4[C@@]5(C)CC[C@H](O)[C@@](C)(CO)[C@@H]5CC[C@@]4(C)[C@]3(C)CC[C@@]2(CO)[C@@H](O)C[C@H]1C(=O)O`, the 50% inhibitory concentration (IC50) came out at 29.9 µM in the data set with RAW264.7 [1] and 60.4 µM in the data set on RAW264.7 [3]. Further, the viability at 50 µM in data set [2] was 118%.
Turning to `C[C@H]1[C@H](C(=O)O)[C@@H](O)C[C@]2(CO)CC[C@]3(C)C(=CC[C@@H]4[C@@]5(C)CC[C@H](O)[C@](C)(CO)[C@@H]5CC[C@]43C)[C@H]12`, the IC50 in the data set on RAW264.7 [1] turned out to be 0.55 µM; with RAW264.7 [3], 91.6 µM. Further, the viability at 50 µM in data set [2] was 112%.
Turning to `C[C@H]1[C@H](C(=O)O)[C@@H](O)C[C@]2(CO)CC[C@]3(C)C(=CC[C@@H]4[C@@]5(C)CC[C@H](O)[C@@](C)(CO)[C@@H]5CC[C@]43C)[C@H]12`, the IC50 in the data set with RAW264.7 [1] and in the data set on RAW264.7 [3] was greater than 100 µM each time. Besides, the viability at 50 µM in data set [2] was determined as 124%.
In the case of `C[C@@H]1[C@H]2C3=CC[C@@H]4[C@@]5(C)CC[C@H](O)[C@](C)(CO)[C@@H]5CC[C@@]4(C)[C@]3(C)CC[C@@]2(CO)[C@@H](O)C[C@H]1C(=O)O`, the IC50 in the data set with RAW264.7 [1] is greater than 100 µM; in the data set on RAW264.7 [3], 100 µM. Besides, the viability at 50 µM in data set [2] amounted to 117%.
Turning to `CC1(C)[C@@H](OC(=O)CCC(=O)O)CC[C@]2(C)[C@H]3C(=O)C=C4[C@@H]5C[C@@](C)(C(=O)O)CC[C@]5(C)CC[C@@]4(C)[C@]3(C)CC[C@@H]12` [CARBENOXOLONE], the IC50 is 6.64 µM in the data set on RAW264.7 [1] and 7.62 µM with RAW264.7 [3]. Besides, in data set [2], the viability at 50 µM stood at 88.5%.
As to `C[C@H]1[C@H](C)CC[C@]2(CO)CC[C@]3(C)C(=CC[C@@H]4[C@@]5(C)CC[C@H](O)C(C)(C)[C@@H]5CC[C@]43C)[C@H]12` [UVAOL], the IC50 in the data set with RAW264.7 [1] and with RAW264.7 [3] was greater than 100 µM throughout. Also, in data set [2], the viability at 50 µM came to 103%.
